Like-named read-outs stand apart in the source and are kept apart here.
Key:
[1] = target: T1, AChE derived from Electrophorus electricus (Electrophorus electricus, UniProt O42275); test: AChE inhibition assay (modified Ellman's colorimetric method, Lineweaver–Burk Ki); type: biochemical, Electrophorus electricus (electric eel); conditions: for Ki: 0.1 M Tris–HCl pH 8.0, substrate acetylthiocholine chloride; for Selectivity (BChE/AChE): ratio of BChE Ki to AChE Ki
T1 construct: purchased Sigma-Aldrich (St. Louis, MO, USA)
T1 sequence (O42275 24-633): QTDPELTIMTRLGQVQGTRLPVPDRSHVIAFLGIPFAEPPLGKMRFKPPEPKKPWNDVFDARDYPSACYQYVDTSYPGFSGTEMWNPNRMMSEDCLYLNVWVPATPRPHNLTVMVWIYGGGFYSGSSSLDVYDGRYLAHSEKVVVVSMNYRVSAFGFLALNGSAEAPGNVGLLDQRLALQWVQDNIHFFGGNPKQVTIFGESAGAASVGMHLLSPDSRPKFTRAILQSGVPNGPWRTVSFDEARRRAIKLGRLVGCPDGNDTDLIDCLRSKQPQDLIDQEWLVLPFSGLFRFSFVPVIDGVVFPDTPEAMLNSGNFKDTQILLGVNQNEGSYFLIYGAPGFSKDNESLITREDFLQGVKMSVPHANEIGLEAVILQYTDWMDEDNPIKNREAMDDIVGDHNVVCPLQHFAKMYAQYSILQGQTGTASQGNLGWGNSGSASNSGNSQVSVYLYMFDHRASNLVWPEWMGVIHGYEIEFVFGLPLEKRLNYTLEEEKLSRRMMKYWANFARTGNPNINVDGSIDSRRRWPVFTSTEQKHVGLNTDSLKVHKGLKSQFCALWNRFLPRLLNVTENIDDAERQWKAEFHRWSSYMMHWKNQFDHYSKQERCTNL
Excerpt: Enzyme kinetic parameters were derived by measuring initial velocities at varying substrate concentrations both in the presence and absence of inhibitors. The Ki values were obtained through Lineweaver–Burk double-reciprocal plots, where 1/V was plotted against 1/[S], allowing for graphical estimation based on the shift in intercepts.[47,48]

[2] = target: T2, BChE isolated from equine serum (Equus caballus, UniProt P81908); test: BChE inhibition assay (modified Ellman's colorimetric method, Lineweaver–Burk Ki); type: biochemical; conditions: for Ki: 0.1 M Tris–HCl pH 8.0, substrate butyrylthiocholine iodide; for BChE Ki, fold more inhibitory than tacrine: relative to tacrine Ki; for BChE Ki, fold more inhibitory than donepezil: relative to donepezil Ki
T2 construct: BChE isolated from equine serum (≥10 U per mg protein); purchased Sigma-Aldrich (St. Louis, MO, USA); host or cells: equine serum
T2 sequence (P81908 whole entry): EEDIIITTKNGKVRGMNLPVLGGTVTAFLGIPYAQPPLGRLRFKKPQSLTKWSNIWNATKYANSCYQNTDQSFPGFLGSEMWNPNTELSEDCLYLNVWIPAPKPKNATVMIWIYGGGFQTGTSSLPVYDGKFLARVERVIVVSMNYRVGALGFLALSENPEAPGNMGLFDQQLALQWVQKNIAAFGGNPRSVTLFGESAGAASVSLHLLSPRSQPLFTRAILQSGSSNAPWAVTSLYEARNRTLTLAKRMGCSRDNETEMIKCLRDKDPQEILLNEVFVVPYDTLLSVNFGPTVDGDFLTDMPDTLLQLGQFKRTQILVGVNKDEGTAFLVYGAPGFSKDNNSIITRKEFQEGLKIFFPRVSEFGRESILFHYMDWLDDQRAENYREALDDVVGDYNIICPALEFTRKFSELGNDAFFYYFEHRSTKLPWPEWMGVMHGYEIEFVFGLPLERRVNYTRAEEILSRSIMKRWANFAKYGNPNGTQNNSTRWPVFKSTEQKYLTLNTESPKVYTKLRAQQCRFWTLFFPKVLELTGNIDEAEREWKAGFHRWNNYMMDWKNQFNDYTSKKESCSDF
Procedure: AChE derived from Electrophorus electricus (electric eel; specific activity: 200–1000 U per mg protein) and BChE isolated from equine serum (≥10 U per mg protein) were obtained from Sigma-Aldrich (St. Louis, MO, USA). Acetylthiocholine chloride (ATChCl) and butyrylthiocholine iodide (BTChI) were utilized as the respective substrates for AChE and BChE assays. All reagent solutions were freshly prepared in 0.1 M Tris–HCl buffer at pH 8.0. The enzymatic activities were assessed spectrophotometrically following a modified protocol based on Ellman's colorimetric method.[46] […] To determine the inhibition constant (Ki), a range of inhibitor concentrations was tested under steady-state conditions. Enzyme kinetic parameters were derived by measuring initial velocities at varying substrate concentrations both in the presence and absence of inhibitors. The Ki values were obtained through Lineweaver–Burk double-reciprocal plots, where 1/V was plotted against 1/[S], allowing for graphical estimation based on the shift in intercepts.[47,48]

[3] = tested on: HUVEC cell line; test: MTT cell viability assay on HUVEC; type: cell-based, human
Procedure: The cell line was cultured in DMEM-F12 medium (Gibco, MD, USA) supplemented with 10% fetal bovine serum (FBS) (Gibco, MD, USA) and 1% penicillin/streptomycin (Gibco, MD, USA) under a 5% CO2 humidified atmosphere at 37 °C.
The MTT proliferation test was conducted to determine the impact of the compounds on cell viability in the HUVEC cell line. The cells were seeded in 96-well plates (1 × 10^4 cells per well) and subsequently allowed to grow for 24 hours. […] Following the treatment duration, MTT solution was added at a final concentration of 0.1 mg mL^−1, and the cells were incubated for 4 hours at 37 °C. Then, the supernatant was discarded, DMSO was added to allow the formazan crystals to dissolve, and the plates were incubated in the dark at room temperature for 30 minutes. The absorbance at 570 nm was determined using a microplate reader (BioTek Instruments, Inc., USA). All cytotoxicity assays were done in three times (three independent experiments). IC50 values are given as mean ± standard deviation (SD). […] The error bars in all the figures show the experimental SD.

[4] = tested on: AChE; conditions: in Fig. 1, cited from earlier work
[5] = tested on: BChE; conditions: in Fig. 1, cited from earlier work
[6] = Homo sapiens, HUVEC, 24 h, MTT, 24 hours treatment, mean ± SD, n = 3, read-out: HUVEC IC50

| Compound | Ki ([1]; Lineweaver–Burk plots) [µM] | Selectivity (BChE/AChE) [1] | Ki ([2]; Lineweaver–Burk plots) [µM] | also measured |
| --- | --- | --- | --- | --- |
| C=CCN1C(=O)/C(=C/c2cc(CN3CCOCC3)c(O)c(OC)c2)SC1=S [Compound 1, (Z)-3-Allyl-5-[4-hydroxy-3-methoxy-5-(morpholinomethyl)benzylidene]-2-thioxothiazolidin-4-one] | 0.0576 ± 0.0116 | 0.93 | 0.0536 ± 0.00887 | BChE Ki, fold more inhibitory than tacrine [2]: more than 3.16 fold |
| C=CCN1C(=O)/C(=C/c2cc(CN3CCN(C)CC3)c(O)c(OC)c2)SC1=S [Compound 2, (Z)-3-Allyl-5-{4-hydroxy-3-methoxy-5-[(4-methylpiperazin-1-yl)methyl]benzylidene}-2-thioxothiazolidin-4-one] | 0.046 ± 0.00521 | 1.11 | 0.0509 ± 0.0104 |  |
| C=CCN1C(=O)/C(=C/c2cc(CN3CCN(c4ccccc4)CC3)c(O)c(OC)c2)SC1=S [Compound 3, (Z)-3-Allyl-5-{4-hydroxy-3-methoxy-5-[(4-phenylpiperazin-1-yl)methyl]benzylidene}-2-thioxothiazolidin-4-one] | 0.062 ± 0.0136 | 1.09 | 0.0677 ± 0.0114 |  |
| C=CCN1C(=O)/C(=C/c2cc(CN3CCN(C(=O)OCC)CC3)c(O)c(OC)c2)SC1=S [Compound 4, (Z)-3-Allyl-5-{4-hydroxy-3-methoxy-5-[(4-ethoxycarbonylpiperazin-1-yl)methyl]benzylidene}-2-thioxothiazolidin-4-one] | 0.0287 ± 0.00612 | 1.15 | 0.033 ± 0.00921 | IC50 [3, 6]: 73.13 ± 0.5 µM |
| C=CCN1C(=O)/C(=C/c2cc(CN3CCCC(C)C3)c(O)c(OC)c2)SC1=S (stereo not shown) [Compound 5, (Z)-3-Allyl-5-{4-hydroxy-3-methoxy-5-[(3-methylpiperidin-1-yl)methyl]benzylidene}-2-thioxothiazolidin-4-one] | 0.0953 ± 0.0112 | 0.93 | 0.0887 ± 0.0155 |  |
| C=CCN1C(=O)/C(=C/c2cc(CN3CCc4ccccc4C3)c(O)c(OC)c2)SC1=S [Compound 6, (Z)-3-Allyl-5-{3-[(3,4-dihydroisoquinolin-2(1H)-yl)methyl]-4-hydroxy-5-methoxybenzylidene}-2-thioxothiazolidin-4-one] | 0.0136 ± 0.00143 | 0.77 | 0.0104 ± 0.00133 | form of inhibition of BChE ([2]; Lineweaver–Burk plots): competitive; BChE Ki, fold more inhibitory than donepezil [2]: 5.98 fold; BChE Ki, fold more inhibitory than tacrine [2]: 16.24 fold; IC50 ([3]; Homo sapiens, HUVEC, 24 h, read-out: HUVEC IC50, MTT, 24 hours treatment, mean ± SD, n = 3): 79.1 µM; IC50 ([3]; MTT, 24 hours treatment, mean ± SD, n = 3, read-out: HUVEC IC50): 79.71 ± 0.52 µM |
| C=CCN1C(=O)/C(=C/c2cc(CN3CCN(c4ncccn4)CC3)c(O)c(OC)c2)SC1=S [Compound 7, (Z)-3-Allyl-5-(4-hydroxy-3-methoxy-5-{[4-(pyrimidin-2-yl)piperazin-1-yl]methyl}benzylidene)-2-thioxothiazolidin-4-one] | 0.0254 ± 0.00945 | 1.14 | 0.029 ± 0.00754 | BChE Ki, fold more inhibitory than tacrine [2]: 5.85 fold; IC50 [3, 6]: 43.3 ± 0.47 µM |
| C=CCN1C(=O)/C(=C/c2cc(CN3CCOCC3)c(O)c(OCC)c2)SC1=S [Compound 8, (Z)-3-Allyl-5-[4-hydroxy-3-ethoxy-5-(morpholinomethyl)benzylidene]-2-thioxothiazolidin-4-one] | 0.0851 ± 0.00845 | 1.42 | 0.121 ± 0.0127 |  |
| C=CCN1C(=O)/C(=C/c2cc(CN3CCN(C(=O)OCC)CC3)c(O)c(OCC)c2)SC1=S [Compound 9, (Z)-3-Allyl-5-{4-hydroxy-3-ethoxy-5-[(4-ethoxycarbonylpiperazin-1-yl)methyl]benzylidene}-2-thioxothiazolidin-4-one] | 0.0315 ± 0.00515 | 1.29 | 0.0405 ± 0.00663 |  |
| C=CCN1C(=O)/C(=C/c2cc(CN3CCN(c4ccccc4)CC3)c(O)c(OCC)c2)SC1=S [Compound 10, (Z)-3-Allyl-5-{4-hydroxy-3-ethoxy-5-[(4-phenylpiperazin-1-yl)methyl]benzylidene}-2-thioxothiazolidin-4-one] | 0.0186 ± 0.00205 | 1.16 | 0.0216 ± 0.00523 | IC50 [3, 6]: 47.4 ± 0.67 µM |
| C=CCN1C(=O)/C(=C/c2cc(CN3CCc4ccccc4C3)c(O)c(OCC)c2)SC1=S [Compound 11, (Z)-3-Allyl-5-{3-[(3,4-dihydroisoquinolin-2(1H)-yl)methyl]-4-hydroxy-5-ethoxybenzylidene}-2-thioxothiazolidin-4-one] | 0.0127 ± 0.00196 |  | 0.0251 ± 0.00641 | form of inhibition of AChE ([1]; Lineweaver–Burk plots): competitive; BChE Ki, fold more inhibitory than donepezil [2]: > 2.49 fold; BChE Ki, fold more inhibitory than tacrine [2]: over 6.75 fold; IC50 [3, 6]: 69.14 ± 0.59 µM |
| C=CCN1C(=O)/C(=C/c2cc(Br)c(O)c(CN3CCOCC3)c2)SC1=S [Compound 12, (Z)-3-Allyl-5-[3-bromo-4-hydroxy-5-(morpholinomethyl)benzylidene]-2-thioxothiazolidin-4-one] | 0.043 ± 0.00877 |  | 0.0972 ± 0.0179 |  |
| C=CCN1C(=O)/C(=C/c2cc(CN3CCOCC3)c(O)c(CN3CCOCC3)c2)SC1=S [Compound 13, (Z)-3-Allyl-5-[4-hydroxy-3,5-bis(morpholinomethyl)benzylidene]-2-thioxothiazolidin-4-one] | 0.0265 ± 0.00921 |  | 0.112 ± 0.0235 |  |
| O=C(CCN1CCN(Cc2ccc(F)cc2)CC1)n1c2ccccc2c2ccccc21 [III] |  |  |  | IC50 [4]: 5.7 µM |
| c1ccc2cc(-c3nc4ccccn4c3CN3CCOCC3)ccc2c1 [II] |  |  |  | IC50 [4]: 0.0126 µM; IC50 [5]: 0.0255 µM |
| O=C(O)c1ccc(/C=N/n2c(CN3CCN(c4ncccn4)CC3)nc3ccccc3c2=O)c(C(=O)O)c1 [IV] |  |  |  | IC50 [4]: 9.99 µM; IC50 [5]: 8.65 µM |
| O=C(c1ccc2nc(-c3ccc[nH]3)oc2c1)N1CCOCC1 [I] |  |  |  | IC50 [4]: 0.0578 µM; IC50 [5]: 0.099 µM |
| CN(C)c1ccc(/C=C2\SC(=S)N(CC(=O)N3CCOCC3)C2=O)cc1 [VII] |  |  |  | IC50 ([4]; rhodanine derivatives): 52.3 µM |
| O=C(CN1C(=O)CSC1=S)Nc1ccc([N+](=O)[O-])cc1 [VI] |  |  |  | IC50 ([4]; rhodanine derivatives): 30.8 µM; IC50 ([5]; rhodanine derivatives): 7.9 µM |
| COc1cc(/C=N\NC(=O)c2ccncc2)cc(CN2CCN(c3ccccc3)CC2)c1O [V] |  |  |  | IC50 [4]: 0.23 µM |
